Results on two molecules are retold here after paper PMC4280362 (Biochimie, 2014).

For assay [1], the target named is T1, Isovaleryl-CoA dehydrogenase (IVD) (Homo sapiens, UniProt P26440).
T1 sequence (P26440 33-426): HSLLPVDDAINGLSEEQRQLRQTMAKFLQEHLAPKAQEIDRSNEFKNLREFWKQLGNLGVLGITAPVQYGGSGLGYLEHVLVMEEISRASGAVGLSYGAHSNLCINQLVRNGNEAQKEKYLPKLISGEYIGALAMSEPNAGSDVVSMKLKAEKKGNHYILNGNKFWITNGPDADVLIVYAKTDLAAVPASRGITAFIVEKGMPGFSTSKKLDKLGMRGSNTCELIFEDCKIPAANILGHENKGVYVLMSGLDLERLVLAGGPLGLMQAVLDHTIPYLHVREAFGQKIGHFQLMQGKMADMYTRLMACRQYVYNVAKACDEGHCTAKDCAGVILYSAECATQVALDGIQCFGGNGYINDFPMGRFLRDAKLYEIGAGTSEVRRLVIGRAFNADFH
The experiment in a line: anaerobic UV/visible spectral titration. In kind it is binding.

The target of assay [2] is T2, recombinant human isovaleryl-CoA dehydrogenase, CoA-persulfide-free (human, UniProt P26440 33-426).
T2 sequence: T1 sequence (P26440 33-426)
The experiment in a line: competitive inhibition of enzyme activity.

With `CC(C)CC(=O)SCCNC(=O)CCNC(=O)[C@H](O)C(C)(C)COP(=O)(O)OP(=O)(O)OC[C@H]1O[C@@H](n2cnc3c(N)ncnc32)[C@H](O)[C@@H]1OP(=O)(O)O` [isovaleryl-CoA], in assay [1], the Kd amounted to 0.54 µM.

With RYATLPNIMKAK [ETF docking peptide, ETF βArg191-βLys202], the Ki in assay [2] came to 1500 µM.

The term Kd denotes the equilibrium constant for the complex coming apart. As a reminder, the Ki is a measure of affinity in units of concentration, obtained from inhibition or displacement.
